Data taken from paper PMC7663263 (Molecules, 2020).
Where two headings read alike, the source gives them in different places.

Tests used:
L. infantum TR = conditions: read-out: Ki L. infantum TR, substrate TS2; 40 nM enzyme, 50–400 µM TS2; steady state; cited from earlier work
L. amazonensis = conditions: read-out: IC50 against L. amazonensis; cited from earlier work
[1] = molecular target: human thioredoxin reductase (TrxR); parameters: method as in PMID 9685351; conditions: cited from earlier work
S. mansoni = tested on: S. mansoni; parameters: method as in PMID 17579510; conditions: after multiple doses; cited from earlier work
L. major = conditions: read-out: IC50 against L. major; cited from earlier work
B. pahangi TrxR = B. pahangi TrxR enzyme assay, DTNB reduction (original data); format: biochemical, Brugia pahangi; conditions: 20 nM enzyme, 3 mM DTNB; after 15 min preincubation; read-out: IC50 B. pahangi TrxR, substrate DTNB (original data)
Procedure: Enzymes were prepared in E. coli as described. Assays were performed at 25 °C in 0.1 M potassium phosphate (pH 7.4), 10 mM EDTA using 100 μM NADPH and 3 mM dithiobis(2-nitrobenzoic acid) (DTNB). […] The increase in A412 during the first 3 min was recorded upon DTNB addition. The reaction was done in triplicate.

Human TrxR [2] = conditions: 2 nM enzyme, 3 mM DTNB; steady state kinetic studies; read-out: IC50 Human TrxR, substrate DTNB; cited from earlier work
Human GR = conditions: 1.5 nM enzyme, 1 mM GSSG; steady state kinetic studies; read-out: IC50 Human GR, substrate GSSG; cited from earlier work
Human TrxR [3] = molecular target: Human TrxR; parameters: method as in PMID 9685351; conditions: 1.7 nM enzyme, steady state kinetic studies, read-out: Ki Human TrxR, substrate E. coli TrxS2, cited from earlier work
S. mansoni TGR [4] = molecular target: T1, S. mansoni TGR (Schistosoma mansoni, UniProt Q962Y6); parameters: method as in PMID 17579510; conditions: 20 nM enzyme, 100 µM GSSG; after 15 min preincubation; read-out: IC50 S. mansoni TGR, substrate GSSG; cited from earlier work
T1 construct: made in house; host or cells: E. coli
T1 sequence (Q962Y6 1-598): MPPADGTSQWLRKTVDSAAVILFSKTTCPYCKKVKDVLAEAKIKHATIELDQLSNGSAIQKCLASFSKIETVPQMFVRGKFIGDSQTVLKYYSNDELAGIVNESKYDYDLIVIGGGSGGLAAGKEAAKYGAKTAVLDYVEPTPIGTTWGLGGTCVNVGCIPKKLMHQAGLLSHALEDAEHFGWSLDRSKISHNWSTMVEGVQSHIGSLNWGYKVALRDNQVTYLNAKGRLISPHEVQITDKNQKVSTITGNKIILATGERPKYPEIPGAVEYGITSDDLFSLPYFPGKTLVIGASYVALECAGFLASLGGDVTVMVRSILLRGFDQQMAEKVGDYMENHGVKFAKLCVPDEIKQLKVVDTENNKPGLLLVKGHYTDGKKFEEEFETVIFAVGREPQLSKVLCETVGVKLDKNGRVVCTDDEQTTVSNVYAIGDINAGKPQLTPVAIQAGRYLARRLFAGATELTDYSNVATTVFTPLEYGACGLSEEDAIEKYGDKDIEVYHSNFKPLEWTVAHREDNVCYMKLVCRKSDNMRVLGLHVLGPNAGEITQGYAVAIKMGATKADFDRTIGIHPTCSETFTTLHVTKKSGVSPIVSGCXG

S. mansoni TGR [5] = molecular target: T1, S. mansoni TGR; parameters: method as in PMID 17579510; conditions: 20 nM enzyme, 3 mM DTNB; after 15 min preincubation; read-out: IC50 S. mansoni TGR, substrate DTNB; cited from earlier work
mitochondrial TrxR2 = tested on: mitochondrial TrxR2; parameters: method as in PMID 15458826; conditions: 2 nM enzyme, 3 mM DTNB; steady state; read-out: IC50 TrxR, substrate DTNB (mitochondrial TrxR2 instead of cytosolic TrxR1); cited from earlier work
S. mansoni TGR [6] = molecular target: T1, S. mansoni TGR; parameters: method as in PMID 17579510; conditions: 20 nM enzyme, 8 mM substrate; after 15 min preincubation; read-out: IC50 S. mansoni TGR, substrate HED + GSSG; cited from earlier work

| Structure (SMILES) | Ki (L. infantum TR) | IC50 (L. amazonensis) | Ki [1] | reduction of worm burdens in S. mansoni infected mice (S. mansoni) | IC50 (L. major) | IC50 (B. pahangi TrxR) | IC50 (Human TrxR [2]) | IC50 (Human GR) | Ki (Human TrxR [3]; at 50 TrxS2) | Ki (Human TrxR [3]; at 75 TrxS2) | IC50 (S. mansoni TGR [4]) | IC50 (S. mansoni TGR [5]) | IC50 (mitochondrial TrxR2) | IC50 (S. mansoni TGR [6]) |
| --- | --- | --- | --- | --- | --- | --- | --- | --- | --- | --- | --- | --- | --- | --- |
| CC(=O)OC[C@H]1O[C@@H]([S-])[C@H](OC(C)=O)[C@@H](OC(C)=O)[C@@H]1OC(C)=O.CCP(CC)CC.[Au+] [Auranofin] | 0.155 µM | 0.27 µM | 0.004 µM | ~ 60% | 0.07 µM | 0.0005 µM | 0.02 µM | 40 µM | 0.002 µM | 0.003 µM | – | – | – | – |
| O=C(O)CC([S-])C(=O)O.[Au+] (centres unmarked) [Aurothiomalate] | – | – | – | – | – | – | – | – | – | – | 0.05 µM | 0.09 µM | 0.28 µM | 0.05 µM |
